{"source": "patent US20160367831A1", "about": "“IMPLANTABLE MEDICAL DEVICE, SYSTEM AND METHOD FOR INDUCING THROMBOSIS IN AN ARTERY OF A LIVING ANIMAL” (Chang Gung Memorial Hospital, Linkou, priority 2015, published 2016)", "type_in_all_cases": "in vivo, spontaneously hypertensive rat (SHR)", "key": {"[1]": {"tested_on": "common carotid artery (CCA)", "experiment": "Histological (H&E) and immunohistochemical (PECAM-1) staining of the CCAs", "settings": "for thrombus formation, histologic examination (H&E): 3 days", "protocol": "The animal of Example 3 and Comparative Example 2 was anesthetized and sacrificed. Both CCAs of Example 3 and Comparative Example 2 were removed and washed in phosphate buffer solution, dehydrated on dry ice, and stored at −80° C. for 24 hours. Before sectioning, all CCAs were embedded in Optimal Cutting Temperature Compound (Tissue Tek, 4583) (Sakura Finetek USA, Inc., Torrance, Calif., USA) and stored at −80° C. for another 12 hours. Cross-sections of the CCAs of Example 3 and Comparative Example 2 (10 μm in thickness) were consecutively cut on a microtome-cryostat. Then, these sections were subjected to hematoxylin and eosin (H&E) staining for evaluation of thrombus formation. For immunohistochemical staining, the slides were treated with cold acetone for 10 minutes and then with methanol with 0.3% H2O2 for 10 minutes. After blocking endogenous peroxidase using a peroxidase blocking reagent (DAKO, Carpinteria, Calif., USA), the primary antibody (anti-PECAM-1 [anti-CD31]) (AbD Serotec, Dusseldorf, Germany) was applied at a dilution of 1:500 overnight at 4° C., followed by a universal immuno-peroxidase polymer (Histofine) (Cosmo Bio, Carlsbad, Calif., USA) for 1 hour at room temperature. Development of color was achieved by exposure for 2 minutes to the DAB chromogen system (DAKO). Endothelium cells were considered positive for PECAM-1 in the presence of intense brown staining."}, "[2]": {"tested_on": "common carotid artery (CCA)", "experiment": "LED photochemical thrombosis induction in the common carotid artery, ultrasound imaging", "settings": "for thrombosis formation in the CCA (ultrasound): no irradiation", "text": "A system for inducing thrombosis was provided, including an implantable medical device and an external power controller. The external power controller includes a Class-E amplifier and a resonant transmitting coil. The implantable medical device includes a resonant receiving coil (i.e., the wireless power receiver) and an LED assembly (i.e., the irradiation module) including a surface-mount device type LED (i.e., the light-emitting element) and a LED lens (i.e., the lens element) disposed on the LED. The LED assembly and the resonant receiving coil were hermetically packaged with polydimethylsiloxane (PDMS) (i.e., the encapsulator). An open ditch of approximately 2 mm in width and depth was made on the LED lens, and four cuts (i.e., the engaging groove) were formed on the PDMS. A male spontaneously hypertensive rat (SHR) (i.e., the living animal) was anesthetized with 3% isoflurane in a mixture of 30% oxygen and 70% nitrogen. After the administration of anesthesia, the rat was placed in a supine position. A 1 cm incision was made in the left inguinal area and the femoral vein was carefully dissected. A polyethylene tube to be used for rose bengal injection was inserted in the femoral vein via the dissected incision and secured using 3-0 nylon suture. […] Blunt dissection of the left common carotid artery (CCA) was performed. The CCA was placed into the ditch of the LED lens, and the implantable medical device was secured onto the CCA using 3-0 nylon suture (i.e., the securing strap) to engage the cuts on the PDMS. After the implantation procedure, the surgical wound was sutured and the rat was placed in a prone position near the transmitting coil of the external power controller. After isoflurane was decreased to 1%, rose bengal (Sigma-Aldrich, St. Louis, Mo., USA) was administrated intravenously at a dose of 60 mg/kg. Thereafter, the external power controller was powered to wirelessly drive the LED of the implantable medical device via the resonant receiving coil to irradiate the CCA at a wavelength of 540 nm. […] The LED light power was measured using a Nova handheld laser power meter (Ophir Optronics Solutions, Ltd., Israel). After irradiation, the implantable medical device was removed and the wound was sutured using 3-0 nylon. Ultrasound images of the CCA prior to irradiation (Pre OP), immediately after irradiation (Post OP), 3 days after irradiation (Post OP 3d), and 7 days after irradiation (Post OP 7d) were captured and are shown in FIG. 6."}, "[3]": {"tested_on": "common carotid artery (CCA)", "experiment": "Magnetic Resonance Angiography (MRA) examination of the CCAs", "settings": "Example 3: intermittent 4.5 mW/cm2 LED", "protocol": "Serial in vivo MRA examination was performed on the CCAs of Example 3 and Comparative Example 2, and the typical MR imaging (MRI) experimental scheme of the time sequence is shown in FIG. 9. Images were acquired using a 7T MRI system (ClinScan 70/30 USR) (Bruker, Rheinstetten, Germany) with a linear body coil. The rat was anaesthetized with 1.5% isoflurane and connected to a respiratory rate monitor. The flow of anesthetic gas was constantly regulated to maintain the breathing rate at approximately 40/min. MRA of the CCAs was performed using the time-of-flight (TOF) method without a contrast agent. Transverse slices (panels (a) to (d) of FIG. 9) were acquired with a fast, low-angle shot (FLASH) using the following parameters: TR=22 ms, TE=4.87 ms, pulse angle=90 degrees, field of view (FQV)=55×42 mm2, and matrix size=58×256. T2-weighted images (panels (e) to (f) of FIG. 9) were acquired using a turbo spin-echo sequence and using the following parameters: TR=2900 ms, TE=37 ms, turbo factor=7, FOV=45×45 mm2, slice thickness=1 mm, and matrix size=240×320. The imaged area covered the CCAs, the carotid bifurcation, the internal carotid artery, and the external carotid artery. Contiguous cross-sectional images were obtained perpendicular to the long axis of the neck. Thrombus formation in the CCAs of Example 3 and Comparative Example 2 was observed by MRA and coronal sequential MR images. […] Because the blood flow of the CCA of Example 3 was disrupted by thrombus, MRA of the CCA of Example 3 was not as bright as the MRA of the CCA of Comparative Example 2 (panel (b) of FIG. 9)."}, "[4]": {"settings": "Example 3: intermittent 4.5 mW/cm2 LED"}}}
{"compound": "O=C([O-])c1c(Cl)c(Cl)c(Cl)c(Cl)c1-c1c2cc(I)c(=O)c(I)c-2oc2c(I)c([O-])c(I)cc12.[Na+].[Na+]", "note": "[rose bengal]", "values": [{"measurement": "endothelial cells, PECAM-1 staining", "setting": "[1]; Comparative Example 2: non-irradiated CCA of the same rat", "result": "intact"}, {"measurement": "endothelial cells, PECAM-1 staining", "setting": "[1]; [4]", "result": "injured and discontinued"}, {"measurement": "thrombus formation, histologic examination (H&E)", "setting": "[1]; [4]", "result": "formation of thrombus packed with red blood cells, leucocytes, and platelets"}, {"measurement": "thrombus formation, histologic examination (H&E)", "setting": "[1]; non-irradiated CCA of the same rat", "result": "no thrombus formation was observed"}, {"measurement": "thrombosis formation in the CCA (ultrasound)", "setting": "[2]; Comparative Example 1: 60 mg/kg i.v., up to 7 days", "result": "thrombosis did not form"}, {"measurement": "thrombosis formation in the CCA (ultrasound)", "setting": "[2]; Comparative Example 2: right CCA of the Example 3 rat, up to 7 days", "result": "thrombosis was not formed"}, {"measurement": "thrombosis / occlusion of the CCA (ultrasound)", "setting": "[2]; Comparative Example 5: intermittent LED 4.0 mW/cm2 (2 h, off 30 min, 2 h), up to 1 day", "result": "disappeared within one day after irradiation"}, {"measurement": "thrombosis / occlusion of the CCA (ultrasound)", "setting": "[2]; Comparative Example 6: intermittent LED 5.0 mW/cm2 (2 h, off 30 min, 2 h), up to 1 day", "result": "the artery became totally occluded one day after irradiation"}, {"measurement": "thrombosis / occlusion of the CCA (ultrasound)", "setting": "[2]; Example 1: 60 mg/kg i.v., LED 540 nm, 6 mW/cm2 continuously for 4 hours, up to 7 days", "result": "totally occluded right after irradiation and total occlusion was maintained for 7 days"}, {"measurement": "thrombosis / occlusion of the CCA (ultrasound)", "setting": "[2]; Example 2: 60 mg/kg i.v., LED 5 mW/cm2 continuously for 4 hours, up to 7 days", "result": "the formed thrombus gradually diminished 3 days after irradiation (Post OP 3d) and totally disappeared at 7 days after irradiation"}, {"measurement": "thrombosis / occlusion of the CCA (ultrasound)", "setting": "[2]; Example 3: 60 mg/kg i.v., LED 4.5 mW/cm2 2 hours, off 30 minutes, 2 hours, up to 7 days", "result": "the CCA was totally occluded at 7 days after irradiation"}, {"measurement": "thrombus in the CCA (MRA / T2-weighted MRI)", "setting": "[3]; immediately after irradiation", "result": "the thrombus appeared on the vessel wall"}, {"measurement": "thrombus in the CCA (MRA / T2-weighted MRI)", "setting": "[3]; seven days after irradiation", "result": "totally occluded"}, {"measurement": "thrombus in the CCA (MRA / T2-weighted MRI)", "setting": "[3]; three days after irradiation", "result": "enlarged and significantly disrupted blood flow"}]}
